Data on one compound can be found in US10059699B2, “Tetrahydroquinoline derivatives as bromodomain inhibitors” (GlaxoSmithKline Intellectual Property (No.2) Limited, priority 2014, dated 2018).

SMILES strings stand for the structures. Marks after values point to notes of the source that are not given here.

Test [1] deals with TNFα. Description: LPS induced secretion of TNFα from whole blood. The format is cell-based. The note with it: human whole blood, LPS 200 ng/mL, n=4; read-out: pIC50, LPS induced TNFα secretion (converted). From the text:
Activation in whole blood of predominantly monocytic cells by agonists of toll-like receptors such as bacterial lipopolysaccharide (LPS) results in production of key inflammatory mediators, including TNFα. Such pathways are widely considered to be central to the pathophysiology of a range of auto-immune and inflammatory disorders.
Human Whole Blood from 2 donors (n=2) is collected using Sodium heparin as anti-coagulent (Wockhardt cat# FP1712) (10 units of heparin/mL of blood). Compounds were prepared as [10 mM] DMSO stocks and then diluted such that the top starting concentration was [1.4 mM] followed by 8×3-fold dilutions in DMSO. Final assay concentrations start at [10 μM] for all compounds. 1 μL diluted compound was added per well in a 96-well U bottom plate. 1 μL DMSO only was added to column 10 (+ve control) and 1-((2S,4R)-2-methyl-4-(phenylamino)-6-(4-(piperidin-1-ylmethyl)phenyl)-3,4-dihydroquinolin-1(2H)-yl)ethanone (for a preparation see Compound 28, J. Med. Chem. 2014, 57, 8111-8131, 1 μL, 1.4 mM) added to column 11 (−ve control). […] 150 μL of 2×MSD Read Buffer T (stock 4×MSD Read Buffer T was diluted 50:50 with de-ionised water) was then added to each well and the plates read on the MSD Sector Imager 6000. Concentration response curves for each compound were generated from the data using internal XC50 analysis and an IC50 value was calculated.

The test system of test [2] is Immunoglobulin-1 (IgG1). As to the kind of experiment: TNP-KLH induced IgG1 production mouse assay. The format is in vivo, mice. The following applies: 30 mg/kg oral; for Day 14 IgG1: 14 day dosing, male CD1 mice; for % reduction in IgG1 from vehicle: day 14. How it is done:
The compound was assayed for its ability to inhibit trinitrophenol-keyhole limpet hemocyanin (TNP-KLH) induced Immunoglobulin-1 (IgG1) production in mice. Male CD1 mice (Charles River Laboratories, 8 per group) received a single oral administration of compound (in 1% (w/v) methylcellulose, aq 400) either once every day (QD), once every other day (QOD) or once every 72 hours (QOED) over a 14 day dosing period. On day 1 of the study, each mouse received a single bolus intraperitoneal (ip) administration of TNP-KLH (100 μg/kg, T-5060-25, Lot #021562-06) 1 hour after oral administration of compound. Serial blood samples were collected at 1 hour post oral compound administration via tail veil on days 1, 4, 7, 9 and 11 or via cardiac puncture (terminal sample) on day 14 and the serum harvested from the blood samples was frozen at −80° C. On the day of analysis, the serum was thawed to room temperature and levels of IgG1 were measured using a TNP ELISA (developed in-house) and read on a SpectraMax 190 spectrophotometer (Molecular Devices, CA). The mean IgG1 values were generated and the mean percent IgG1 reduction on day 14 following treatment with compound was calculated compared to the corresponding vehicle treated group. Levels of significance were calculated by analysis of variance (ANOVA) followed by Dunnett's multiple comparison t-test using Graphpad Prism version 5.04 (Graphpad Software, San Diego, Calif.). Statistical differences were determined as […].

On to `CC(=O)N1c2ccc(C(N)=O)cc2[C@H](Nc2ncc(Cl)cn2)C[C@@H]1C` [Example 14, (2S,4R)-1-acetyl-4-((5-chloropyrimidin-2-yl)amino)-2-methyl-1,2,3,4-tetrahydroquinoline-6-carboxamide], for which the IC50 in test [1] is 63.1 nM. Further, the “Day 14 IgG1” value came out at 127 ng/mL in test [2] (QD), 373 ng/mL in test [2] (QOD) and 3162 ng/mL in test [2] (QOED (every 72 hours)). Also, the “% reduction in IgG1 from vehicle” value is on record as 98*** % in test [2] (QD), 93*** % in test [2] (QOD) and 41% in test [2].
